Several values for one entry are separate records, joined by “and”; a condition that tells them apart may be missing. Identical values can stand only once. Toxic doses and inconclusive results are not listed.
Test system: CD2F1 mice, L1210 leukemia ip, survival T/C
Experiment: NCI In Vivo Anticancer Drug Screen. Data for tumor model L1210 Leukemia (intraperitoneal) in CD2F1 (CDF1) mice
Settings: higher = longer survival
Procedure, shortened: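 Read-out first: treated-group measurement over vehicle-control measurement, expressed as a ratio. Animals bore a transplanted tumor line and were dosed with compound or vehicle.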

[1] = endpoint: mean survival time, dose: 100.0 mg/kg/injection, schedule: Q01DX009 (ip), vehicle: saline

CCN(CC)CCNc1ccc(C)c2sc3ccccc3c(=O)c12
T/C (endpoint: mean survival time, dose: 7.5 mg/kg/injection, schedule: Q01DX005 (ip), vehicle: water): 103 % of control | T/C (endpoint: mean survival time, dose: 15.0 mg/kg/injection, schedule: Q01DX005 (ip), vehicle: water): 104 % of control | T/C (endpoint: mean survival time, dose: 25.0 mg/kg/injection, schedule: Q01DX007 (ip), vehicle: saline): 121 % of control | T/C (endpoint: mean survival time, dose: 25.0 mg/kg/injection, schedule: Q01DX009 (ip), vehicle: saline): 118 % of control | T/C (endpoint: mean survival time, dose: 25.0 mg/kg/injection, schedule: Q03DX003 (ip), vehicle: saline): 107 % of control | T/C (endpoint: mean survival time, dose: 25.0 mg/kg/injection, schedule: Q04DX003 (ip), vehicle: saline): 107 % of control | T/C (endpoint: mean survival time, dose: 30.0 mg/kg/injection, schedule: Q01DX005 (ip), vehicle: water): 106 % of control | T/C (endpoint: mean survival time, dose: 50.0 mg/kg/injection, schedule: Q03DX003 (ip), vehicle: saline): 112 % of control | T/C (endpoint: mean survival time, dose: 50.0 mg/kg/injection, schedule: Q04DX003 (ip), vehicle: saline): 114 % of control | T/C (endpoint: mean survival time, dose: 100.0 mg/kg/injection, schedule: Q01DX007 (ip), vehicle: saline): 163 % of control | T/C [1]: 171 % of control | T/C (endpoint: mean survival time, dose: 120.0 mg/kg/injection, schedule: Q01DX005 (ip), vehicle: water): 110 % of control | T/C (endpoint: median survival time, dose: 6.25 mg/kg/injection, schedule: Q01DX009 (ip), vehicle: water): 116 % of control | T/C (endpoint: median survival time, dose: 12.5 mg/kg/injection, schedule: Q01DX009 (ip), vehicle: water): 121 % of control | T/C (endpoint: median survival time, dose: 25.0 mg/kg/injection, schedule: Q01DX009 (ip), vehicle: saline with Tween-80): 114 % of control | T/C (endpoint: median survival time, dose: 25.0 mg/kg/injection, schedule: Q01DX009 (ip), vehicle: saline): 116 % of control and 120 % of control and 100 % of control | T/C (endpoint: median survival time, dose: 50.0 mg/kg/injection, schedule: Q01DX009 (ip), vehicle: water): 165 % of control | T/C (endpoint: median survival time, dose: 100.0 mg/kg/injection, schedule: Q01DX009 (ip), vehicle: saline with Tween-80): 198 % of control | T/C (endpoint: median survival time, dose: 100.0 mg/kg/injection, schedule: Q01DX009 (ip), vehicle: water): 112 % of control | T/C (endpoint: median survival time, dose: 200.0 mg/kg/injection, schedule: Q01DX009 (ip), vehicle: saline with Tween-80): 118 % of control

Nc1nc([Se])c2ncn(C3OC(CO)C(O)C3O)c2n1 (stereo not drawn)
T/C (endpoint: mean survival time, dose: 1.0 mg/kg/injection, schedule: Q01DX009 (ip), vehicle: saline): 123 % of control | T/C (endpoint: mean survival time, dose: 2.0 mg/kg/injection, schedule: Q01DX009 (ip), vehicle: distilled water + Tween-80): 114 % of control | T/C (endpoint: mean survival time, dose: 2.0 mg/kg/injection, schedule: Q01DX009 (ip), vehicle: water): 119 % of control | T/C (endpoint: mean survival time, dose: 2.0 mg/kg/injection, schedule: Q04DX003 (ip), vehicle: DMSO): 117 % of control | T/C (endpoint: mean survival time, dose: 2.0 mg/kg/injection, schedule: Q04DX003 (ip), vehicle: clinical formulation): 116 % of control and 109 % of control | T/C (endpoint: mean survival time, dose: 2.0 mg/kg/injection, schedule: Q04DX003 (ip), vehicle: saline): 115 % of control and 119 % of control | T/C (endpoint: mean survival time, dose: 2.5 mg/kg/injection, schedule: Q01DX005 (iv), vehicle: water): 95 % of control | T/C (endpoint: mean survival time, dose: 4.0 mg/kg/injection, schedule: Q04DX003 (ip), vehicle: DMSO): 113 % of control | T/C (endpoint: mean survival time, dose: 4.0 mg/kg/injection, schedule: Q04DX003 (ip), vehicle: clinical formulation): 113 % of control | T/C (endpoint: mean survival time, dose: 5.0 mg/kg/injection, schedule: Q01DX005 (iv), vehicle: water): 113 % of control | T/C (endpoint: mean survival time, dose: 8.0 mg/kg/injection, schedule: Q04DX003 (ip), vehicle: clinical formulation): 115 % of control | T/C (endpoint: mean survival time, dose: 12.5 mg/kg/injection, schedule: Q01DX005 (ip), vehicle: saline): 169 % of control | T/C (endpoint: mean survival time, dose: 16.0 mg/kg/injection, schedule: Q01DX009 (ip), vehicle: distilled water + Tween-80): 150 % of control | T/C (endpoint: mean survival time, dose: 16.0 mg/kg/injection, schedule: Q01DX009 (ip), vehicle: water): 119 % of control | T/C (endpoint: mean survival time, dose: 25.0 mg/kg/injection, schedule: Q01DX005 (ip), vehicle: saline): 191 % of control | T/C (endpoint: mean survival time, dose: 32.0 mg/kg/injection, schedule: Q01DX009 (ip), vehicle: distilled water + Tween-80): 156 % of control | T/C (endpoint: mean survival time, dose: 32.0 mg/kg/injection, schedule: Q01DX009 (ip), vehicle: saline): 116 % of control and 117 % of control | T/C (endpoint: mean survival time, dose: 32.0 mg/kg/injection, schedule: Q01DX009 (ip), vehicle: water): 92 % of control | T/C (endpoint: mean survival time, dose: 40.0 mg/kg/injection, schedule: Q01DX005 (iv), vehicle: water): 151 % of control | T/C (endpoint: mean survival time, dose: 50.0 mg/kg/injection, schedule: Q01DX005 (ip), vehicle: saline): 187 % of control | T/C (endpoint: mean survival time, dose: 64.0 mg/kg/injection, schedule: Q01DX009 (ip), vehicle: saline): 87 % of control | T/C (endpoint: median survival time, dose: 1.0 mg/kg/injection, schedule: Q01DX009 (sc), vehicle: DMSO): 100 % of control | T/C (endpoint: median survival time, dose: 1.0 mg/kg/injection, schedule: Q03HX016 (ip), vehicle: DMSO): 153 % of control | T/C (endpoint: median survival time, dose: 1.0 mg/kg/injection, schedule: Q03HX024 (ip), vehicle: DMSO): 150 % of control | T/C (endpoint: median survival time, dose: 2.0 mg/kg/injection, schedule: Q01DX009 (ip), vehicle: DMSO): 172 % of control | T/C (endpoint: median survival time, dose: 2.0 mg/kg/injection, schedule: Q01DX009 (sc), vehicle: DMSO): 111 % of control | T/C (endpoint: median survival time, dose: 2.0 mg/kg/injection, schedule: Q03HX008 (ip), vehicle: DMSO): 171 % of control | T/C (endpoint: median survival time, dose: 2.0 mg/kg/injection, schedule: Q03HX016 (ip), vehicle: DMSO): 162 % of control | T/C (endpoint: median survival time, dose: 2.0 mg/kg/injection, schedule: Q03HX024 (ip), vehicle: DMSO): 178 % of control | T/C (endpoint: median survival time, dose: 4.0 mg/kg/injection, schedule: Q01DX009 (ip), vehicle: DMSO): 200 % of control | T/C (endpoint: median survival time, dose: 4.0 mg/kg/injection, schedule: Q01DX009 (oral), vehicle: DMSO): 107 % of control | T/C (endpoint: median survival time, dose: 4.0 mg/kg/injection, schedule: Q03HX008 (ip), vehicle: DMSO): 173 % of control | T/C (endpoint: median survival time, dose: 4.0 mg/kg/injection, schedule: Q03HX016 (ip), vehicle: DMSO): 185 % of control | T/C (endpoint: median survival time, dose: 4.0 mg/kg/injection, schedule: Q03HX024 (ip), vehicle: DMSO): 175 % of control | T/C (endpoint: median survival time, dose: 4.0 mg/kg/injection, schedule: Q08DX002 (ip), vehicle: DMSO): 123 % of control | T/C (endpoint: median survival time, dose: 8.0 mg/kg/injection, schedule: Q01DX001 (sc), vehicle: DMSO): 112 % of control | T/C (endpoint: median survival time, dose: 8.0 mg/kg/injection, schedule: Q01DX009 (ip), vehicle: DMSO): 175 % of control | T/C (endpoint: median survival time, dose: 8.0 mg/kg/injection, schedule: Q01DX009 (oral), vehicle: DMSO): 123 % of control | T/C (endpoint: median survival time, dose: 8.0 mg/kg/injection, schedule: Q01DX009 (sc), vehicle: DMSO): 166 % of control | T/C (endpoint: median survival time, dose: 8.0 mg/kg/injection, schedule: Q03HX008 (ip), vehicle: DMSO): 176 % of control | T/C (endpoint: median survival time, dose: 8.0 mg/kg/injection, schedule: Q03HX016 (ip), vehicle: DMSO): 176 % of control | T/C (endpoint: median survival time, dose: 8.0 mg/kg/injection, schedule: Q03HX024 (ip), vehicle: DMSO): 185 % of control | T/C (endpoint: median survival time, dose: 8.0 mg/kg/injection, schedule: Q04DX003 (ip), vehicle: DMSO): 166 % of control | T/C (endpoint: median survival time, dose: 16.0 mg/kg/injection, schedule: Q01DX001 (oral), vehicle: DMSO): 120 % of control | T/C (endpoint: median survival time, dose: 16.0 mg/kg/injection, schedule: Q01DX001 (sc), vehicle: DMSO): 121 % of control | T/C (endpoint: median survival time, dose: 16.0 mg/kg/injection, schedule: Q01DX009 (ip), vehicle: DMSO): 191 % of control | T/C (endpoint: median survival time, dose: 16.0 mg/kg/injection, schedule: Q01DX009 (oral), vehicle: DMSO): 158 % of control | T/C (endpoint: median survival time, dose: 16.0 mg/kg/injection, schedule: Q01DX009 (sc), vehicle: DMSO): 187 % of control | T/C (endpoint: median survival time, dose: 16.0 mg/kg/injection, schedule: Q04DX003 (ip), vehicle: DMSO): 178 % of control | T/C (endpoint: median survival time, dose: 16.0 mg/kg/injection, schedule: Q08DX002 (ip), vehicle: DMSO): 102 % of control | T/C (endpoint: median survival time, dose: 32.0 mg/kg/injection, schedule: Q01DX001 (oral), vehicle: DMSO): 117 % of control | T/C (endpoint: median survival time, dose: 32.0 mg/kg/injection, schedule: Q01DX009 (ip), vehicle: DMSO): 178 % of control | T/C (endpoint: median survival time, dose: 32.0 mg/kg/injection, schedule: Q01DX009 (oral), vehicle: DMSO): 167 % of control | T/C (endpoint: median survival time, dose: 32.0 mg/kg/injection, schedule: Q01DX009 (sc), vehicle: DMSO): 160 % of control | T/C (endpoint: median survival time, dose: 32.0 mg/kg/injection, schedule: Q04DX003 (ip), vehicle: DMSO): 183 % of control | T/C (endpoint: median survival time, dose: 64.0 mg/kg/injection, schedule: Q01DX009 (ip), vehicle: DMSO): 116 % of control | T/C (endpoint: median survival time, dose: 64.0 mg/kg/injection, schedule: Q01DX009 (oral), vehicle: DMSO): 160 % of control | T/C (endpoint: median survival time, dose: 64.0 mg/kg/injection, schedule: Q01DX009 (sc), vehicle: DMSO): 111 % of control | T/C (endpoint: median survival time, dose: 64.0 mg/kg/injection, schedule: Q04DX003 (ip), vehicle: DMSO): 191 % of control | T/C (endpoint: median survival time, dose: 128.0 mg/kg/injection, schedule: Q01DX001 (ip), vehicle: DMSO): 121 % of control

O=C1/C(=C/c2cccc([N+](=O)[O-])c2)CCc2ccccc21
T/C [1]: 94 % of control | T/C (endpoint: mean survival time, dose: 200.0 mg/kg/injection, schedule: Q01DX009 (ip), vehicle: saline): 97 % of control | T/C (endpoint: mean survival time, dose: 400.0 mg/kg/injection, schedule: Q01DX009 (ip), vehicle: saline): 91 % of control
